In data set [1] the test system is P388 mouse leukemia cells. The experiment in a line: Life-span-prolonging (anti-tumor) effect on mice subcutaneously inoculated with P388 mouse leukemia cells. In kind it is in vivo, mouse (CDF1 female). The note with it: for Survival days ave. ± s. d. / response vs control in vivo at 0.1 mg/kg: 0.1 mg/kg i.v. on days 1, 5 and 9; for Survival days ave. ± s. d.: all marked ** (p < 0.01); for response vs control in vivo at 0.1 mg/kg: Mus musculus, P388, iv, survival vs vehicle, read-out: T/C (%); for life-span-prolonging effect (anti-tumor effect), in words: P388 s.c. system. A digest of the protocol: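 CDF1 female mice (6 weeks), 5 per group, inoculated subcutaneously with P388 leukemia cells; life-span prolongation assessed. Lentinan and picibanil given intravenously on days 1, 3, 5, 7 and 9 after implantation; sizofilan given subcutaneously on days 1 through 9. Statistics by Mann-Whitney test.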

The test system of another data set is mouse bone marrow cells. The experiment in a line: In vitro mouse bone marrow cell-proliferation-promoting effect (3H-TdR uptake). It counts as cell-based, mouse (BDF1 female). The note with it: Mus musculus, Bone marrow cell, 96 h, 4 days, read-out: Uptake of 3H-TdR (% of control), bone marrow cells; for activity at 0.1 µg/mL: 10^-1 μg/ml; for activity at 0.01 µg/mL: 10^-2 μg/ml. In short, it runs like this:
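Femoral bone marrow monocytes from 6-week female BDF1 mice (Lympholite M fraction, 1×10^6 cells/ml in 10% FCS RPMI 1640) cultured with sample for 4 days at 37 °C, 5% CO2. 3H-TdR (0.5 μCi/well) added for final 6 h; uptake ratio versus vehicle reported as activation rate.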

A further data set relates to mouse splenic lymphocyte. The data set is described as follows: In vitro mouse splenic lymphocyte-proliferation-stimulating effect (3H-TdR uptake). In kind it is cell-based, mouse (BDF1 female). The note with it: Mus musculus, Splenic lymphocyte, 48 h, 2 days, read-out: Uptake of 3H-TdR (% of control), splenic lymphocytes; for activity at 1 µg/mL: 10^0 μg/ml. A digest of the protocol:
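Spleen cells from 6-week-old female BDF1 mice, 2×10^6 cells/ml in 10% FCS RPMI 1640, cultured with vehicle or sample 2 days at 37° C, 5% CO2. ^3H-TdR (0.5 μCi/well) uptake over 6 h by scintillation counting, expressed as % of vehicle.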

Data set [2] relates to mixed lymphocyte culture reaction (spleen cells of C57BL/6 and BALB/C mice). The experiment in a line: Mixed lymphocyte culture reaction (MLR). It counts as cell-based, mouse (C57BL/6 stimulator, BALB/C responder). To be noted: Mus musculus, Lymphocyte, 42 hours, read-out: MLR activating rate (%); for activity at 1 µg/mL: 1 × 10^0 μg/ml; for activity at 0.1 µg/mL: 1 × 10^-1 μg/ml. A digest of the protocol:
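Mouse one-way MLR: mitomycin C-treated (50 μg/ml, 30 min) C57BL/6 spleen cells stimulated BALB/C responder spleen cells, 2×10^6 cells/ml each, cultured 42 h at 37 °C with sample. ³H-thymidine (0.5 μCi/well) incorporation over a further 8 h gave MLR activating rate as % of vehicle uptake.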

Data set [3] in a line: Solubility in water in aqueous Polysorbate 20 solutions. It counts as physicochemical. The note with it: for amount of Polysorbate 20 required for dissolving, relative to that required for Compound b: vs Compound b. The procedure: Compounds a and b comprising a monosaccharide as a constituent sugar which are disclosed in WO 93/05055 were synthesized as above. A 1 mg of each of the present compounds 4, 31 and 33 and Compound a and b was dissolved in 1 ml of an aqueous Polysorbate 20 solution in a variety of concentrations in order to observe visually the property.

Data set [4] has as its system mouse splenic lymphocytes. The data set is described as follows: Influence of Polysorbate on immunostimulating effect (3H-TdR uptake into mouse splenic lymphocytes). It counts as cell-based, mouse (BDF1 female). The note with it: for 3H-TdR uptake in words, compound with Polysorbate 20: 10 μg/ml (0.1% Polysorbate 20) and 1 μg/ml (0.01%) vs 0.1 μg/ml (0.001%); for 3H-TdR uptake: mean of 3 wells. The procedure: Experiment was performed with BDF1 female mice (6 weeks old) purchased from NIPPON SLC K.K. Spleens were removed from mice, and spleen cells were brayed with slide glasses and hemolized with NH4 Cl. 2×10^6cells/ml of the spleen cells which had been hemolized were suspended in 10% FCS RPMI 1640. The cell suspension (100 μl/well) and a vehicle or sample (10 μl/well) which was prepared so as to have a final level shown in Table 3 were added into wells of a round-bottomed 96 well plate, and cultured under the condition of 5% CO2 at 37° C. for 2 days. 0.5 μCi/well of ^3 H-thymidine (^3 H-TdR) was added. After 6 hours, the cells were harvested, and the amount of ^3 H-TdR uptaken into nucleus was measured by a liquid scintillation counter. The ratio (%) of the uptake of ^3 H-TdR in the sample group to that in the vehicle group was calculated and used as the in vitro mouse splenic lymphocyte-proliferation-stimulating rate.
A sample of a solution of 1 mg of Compound 33 prepared in Experimental Example 8 in 1 ml of 10% or 0.1% Polysorbate 20, a sample of a solution of 1 mg of Compound b in 1 ml of 10% Polysorbate 20, or 10% and 0.1% Polysorbate 20, were prepared by subjecting to aseptic filtration followed by sequential 10 time dilution with PBS as shown in Table 5 in order to carry out the experiment described in Experimental Example 6.
In this connection, 1 mg of Compound b was insoluble in 0.1% Polysorbate, and thus no experiment was conducted.

Where [5] appears, read: 10% PS20 stock (compound 1 mg/ml), dilution 10^2.
Setting [6] is: 10% PS20 stock (compound 1 mg/ml), dilution 10^3.
Where [7] appears, read: 10% PS20 stock (compound 1 mg/ml), dilution 10^4.
The mark [8] stands for this setting: 10% PS20 stock (compound 1 mg/ml), dilution 10^5.

In the case of `CCCCCCCCCCCCCCCCCCCCCCCCCC(=O)N[C@@H](CO[C@H]1O[C@H](CO[C@H]2O[C@H](CO)[C@H](O)[C@H](O)[C@H]2O)[C@@H](O)[C@H](O)[C@H]1O)[C@H](O)[C@H](O)CCCCCCCCCCCCCC` [Compound 31, O-α-D-galactopyranosyl-(1→6)-O-α-D-glucopyranosyl-(1→1)-(2S,3S,4R)-2-amino-N-hexacosanoyl-1,3,4-octadecanetriol], in data set [1], the “Survival days ave. ± s. d.” value is 14.6 ± 0.5 days; the response vs control in vivo at 0.1 mg/kg came out at 114%; the “life-span-prolonging effect (anti-tumor effect), in words” value is listed as “intensive anti-tumor effects almost in the same level as that of Compound b”. For the same molecule, in the data set with mouse bone marrow cells, the activity at 0.1 µg/mL was determined as 296% and the activity at 0.01 µg/mL was determined as 594%. In the data set with mouse splenic lymphocyte, the activity at 1 µg/mL came out at 615%. For the same molecule, in the data set on mouse splenic lymphocyte (10^-3 μg/ml), the activity at 0.001 µg/mL worked out at 744%. In data set [2], the activity at 1 µg/mL was 206% and the activity at 0.1 µg/mL turned out to be 196%. Besides, the “amount of Polysorbate 20 required for dissolving, relative to that required for Compound b” value in data set [3] is 1/100.
For the molecule `CCCCCCCCCCCCCCCCCCCCCCCCCC(=O)N[C@@H](CO[C@H]1O[C@H](CO[C@H]2O[C@H](CO)[C@H](O)[C@H](O)[C@H]2O)[C@H](O)[C@H](O)[C@H]1O)[C@H](O)[C@H](O)CCCCCCCCCCCCCC` [Compound 33, O-α-D-galactopyranosyl-(1→6)-O-α-D-galactopyranosyl-(1→1)-(2S,3S,4R)-2-amino-N-hexacosanoyl-1,3,4-octadecanetriol], the “Survival days ave. ± s. d.” value in data set [1] is on record as 15.0 ± 0.7 days. The response vs control in vivo at 0.1 mg/kg in data set [1] worked out at 117%. In addition, in data set [1], the “life-span-prolonging effect (anti-tumor effect), in words” value is “intensive anti-tumor effects almost in the same level as that of Compound b”. Further, the activity at 0.1 µg/mL is 214% with mouse bone marrow cells and 251% in data set [2]. In addition, in the data set on mouse bone marrow cells, the activity at 0.01 µg/mL came to 763%. The activity at 1 µg/mL in the data set on mouse splenic lymphocyte was 954%; in data set [2] it was 302%. Also, the “amount of Polysorbate 20 required for dissolving, relative to that required for Compound b” value in data set [3] was 1/100. Moreover, in data set [4] (10 μg/ml (0.001% Polysorbate 20)), the “3H-TdR-uptake-stimulating effect, in words” value was “intensive ^3 H-TdR-uptake-stimulating effect”. Moreover, in data set [4], the “3H-TdR uptake in words, compound with Polysorbate 20” value was “suppressed”. In addition, the 3H-TdR uptake was 24213 cpm in data set [4] (0.1% PS20 stock (compound 1 mg/ml), dilution 10^2); 23332 cpm in data set [4] (0.1% PS20 stock (compound 1 mg/ml), dilution 10^3); 26249 cpm in data set [4] (0.1% PS20 stock (compound 1 mg/ml), dilution 10^4); 23653 cpm in data set [4] (0.1% PS20 stock (compound 1 mg/ml), dilution 10^5); 119 cpm in data set [4] (setting [5]); 18447 cpm in data set [4] (setting [6]). Also, the figures for the 3H-TdR uptake in data set [4] (setting [7]) and in data set [4] (setting [8]) were 24671 cpm and 21677 cpm, respectively.
Turning to `CCCCCCCCCCCCCCCCCCCCCCCCCC(=O)N[C@@H](CO[C@H]1O[C@H](CO)[C@H](O)[C@H](O)[C@H]1O)[C@H](O)[C@H](O)CCCCCCCCCCCCCC` [Compound b, (2S,3S,4R)-1-(α-D-galactopyranosyloxy)-2-hexacosanoylamino-3,4-octadecanediol, reference compound], in data set [1], the “Survival days ave. ± s. d.” value turned out to be 15.6 ± 0.5 days. For the same molecule, the response vs control in vivo at 0.1 mg/kg in data set [1] is 122%. Besides, in the data set with mouse bone marrow cells, the activity at 0.1 µg/mL was determined as 381%. Moreover, in the data set on mouse bone marrow cells, the activity at 0.01 µg/mL worked out at 438%. For the same molecule, the “solubility in Polysorbate, in words” value in data set [3] (1 mg in 0.1% Polysorbate) is on record as “insoluble”. The “3H-TdR uptake in words, compound with Polysorbate 20” value in data set [4] is “suppressed”. The 3H-TdR uptake in data set [4] (setting [5]) is listed as 201 cpm; in data set [4] (setting [6]) it was 18300 cpm; in data set [4] (setting [7]), 24439 cpm; in data set [4] (setting [8]), 25555 cpm.

(Values after patent US5780441A, “Sphingoglycolipid compounds and therapeutic uses thereof” (Kirin Beer Kabushiki Kaisha, priority 1993, dated 1998).)
